Test results taken from patent US20190247361A1, “OXYTOCIN ANTAGONIST DOSING REGIMENS FOR PROMOTING EMBRYO IMPLANTATION AND PREVENTING MISCARRIAGE” (ObsEva S.A., priority 2016, published 2019).

Assays:
Format in all cases: in vitro ADME
[1] = test system: cytochrome P450; assay: microsomal stability, pooled liver microsomes, cytochrome P450 alone; conditions: 45 minute experiment
Experimental: (§1) At five time points over the course of a 45 minute experiment, the compounds were analyzed by liquid chromatography and tandem mass spectrometry (LC-MS/MS). Intrinsic clearance values (CLint) with standard error (SE CLint) and metabolic half-life (t1/2) were calculated and are indicated in Table 9, below.

[2] = test system: cytochrome P450 in combination with UGT; assay: microsomal stability, pooled liver microsomes, cytochrome P450 in combination with UGT; conditions: 45 minute experiment
Experimental: as §1

[3] = target: CYP3A4 (Homo sapiens, UniProt P08684); assay: metabolism by CYP3A4 isoform; conditions: for Compound Remaining (% of compound present at t = 0 min): 5 μM
Experimental: (§2) At five time points over the course of a 45 minute experiment, the compounds were analyzed by LC-MS/MS. The percentage of each compound remaining at each time point, along with the metabolic half-lives of each compound in the presence of each cytochrome P450 isoform, are indicated in Tables 10-12, below.

[4] = target: CYP2D6 (Homo sapiens, UniProt P10635); assay: metabolism by CYP2D6 isoform; conditions: for Compound Remaining (% of compound present at t = 0 min): 5 μM
Experimental: as §2

[5] = target: CYP2C19 (Homo sapiens, UniProt P33261); assay: metabolism by CYP2C19 isoform; conditions: for Compound Remaining (% of compound present at t = 0 min): 5 μM
Experimental: as §2

CYP2C19, sequence (P33261 whole entry, canonical isoform): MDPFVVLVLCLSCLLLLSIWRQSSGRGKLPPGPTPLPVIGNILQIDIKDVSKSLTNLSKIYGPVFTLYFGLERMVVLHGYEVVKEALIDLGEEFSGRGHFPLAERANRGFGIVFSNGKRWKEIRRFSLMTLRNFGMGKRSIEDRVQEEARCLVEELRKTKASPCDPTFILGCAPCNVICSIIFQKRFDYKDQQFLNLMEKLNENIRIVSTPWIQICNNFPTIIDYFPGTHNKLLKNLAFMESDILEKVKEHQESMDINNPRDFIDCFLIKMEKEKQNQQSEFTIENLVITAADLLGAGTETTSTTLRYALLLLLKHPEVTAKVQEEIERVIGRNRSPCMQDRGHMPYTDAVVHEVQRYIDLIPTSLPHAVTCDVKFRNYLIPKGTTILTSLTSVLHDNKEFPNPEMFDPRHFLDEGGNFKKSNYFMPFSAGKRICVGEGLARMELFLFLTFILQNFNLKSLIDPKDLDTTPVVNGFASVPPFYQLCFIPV
CYP2D6, sequence (P10635 whole entry, canonical isoform): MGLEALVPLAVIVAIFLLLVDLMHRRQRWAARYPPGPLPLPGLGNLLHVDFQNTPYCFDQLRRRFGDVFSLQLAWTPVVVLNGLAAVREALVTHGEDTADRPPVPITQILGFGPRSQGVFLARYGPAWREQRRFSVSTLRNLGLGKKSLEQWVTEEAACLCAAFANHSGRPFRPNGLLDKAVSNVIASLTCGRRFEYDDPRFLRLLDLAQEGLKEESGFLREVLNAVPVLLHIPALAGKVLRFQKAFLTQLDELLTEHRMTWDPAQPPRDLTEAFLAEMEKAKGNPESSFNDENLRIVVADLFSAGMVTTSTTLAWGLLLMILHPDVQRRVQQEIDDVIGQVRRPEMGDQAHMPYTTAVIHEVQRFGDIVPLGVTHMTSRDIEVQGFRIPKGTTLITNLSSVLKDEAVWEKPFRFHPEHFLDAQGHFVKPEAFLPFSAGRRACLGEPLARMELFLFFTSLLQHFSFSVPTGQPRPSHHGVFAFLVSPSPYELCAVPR
CYP3A4, sequence (P08684 whole entry, canonical isoform): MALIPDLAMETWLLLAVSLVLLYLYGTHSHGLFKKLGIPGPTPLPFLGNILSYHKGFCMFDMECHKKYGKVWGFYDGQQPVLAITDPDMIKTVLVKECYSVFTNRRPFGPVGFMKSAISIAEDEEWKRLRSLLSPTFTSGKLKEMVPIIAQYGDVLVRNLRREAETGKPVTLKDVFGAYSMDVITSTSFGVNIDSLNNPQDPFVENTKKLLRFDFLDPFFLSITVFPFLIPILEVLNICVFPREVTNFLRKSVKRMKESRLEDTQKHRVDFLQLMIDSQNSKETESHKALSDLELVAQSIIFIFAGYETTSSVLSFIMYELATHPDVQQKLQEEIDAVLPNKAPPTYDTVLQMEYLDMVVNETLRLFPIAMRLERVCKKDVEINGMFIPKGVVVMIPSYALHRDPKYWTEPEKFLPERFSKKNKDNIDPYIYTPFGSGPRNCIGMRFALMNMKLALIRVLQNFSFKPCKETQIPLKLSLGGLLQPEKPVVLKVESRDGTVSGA

CO/N=C1\C[C@@H](CO)N(C(=O)c2ccc(-c3ccccc3C)cc2)C1 [(3E) isomer, (3E,5S)-5-(hydroxymethyl)-1-[(2′-methyl-1,1′-biphenyl-4-yl)carbonyl]pyrrolidin-3-one O-methyloxime, reference compound]
microsomal CLint at 3 μM ([1]; read-out: CLint, Metabolic Stability - CYP): 6.4 µL/min/mg | half-life at 3 μM ([1]; read-out: t1/2, Metabolic Stability - CYP): 3.6 h | microsomal CLint at 3 μM ([2]; read-out: CLint, Metabolic Stability - CYP/UGT): 5.38 µL/min/mg | half-life at 3 μM ([2]; read-out: t1/2, Metabolic Stability - CYP/UGT): 4.3 h | Compound Remaining (% of compound present at t = 0 min) ([3]; 0 min): 100% | Compound Remaining (% of compound present at t = 0 min) ([3]; 5 min): 107% | Compound Remaining (% of compound present at t = 0 min) ([3]; 15 min): 88.8% | Compound Remaining (% of compound present at t = 0 min) ([3]; 30 min): 92.5% | Compound Remaining (% of compound present at t = 0 min) ([3]; 45 min): 92.2% | half-life at 5 μM ([3]; human): 4.68 h | Compound Remaining (% of compound present at t = 0 min) ([4]; 0 min): 100% | Compound Remaining (% of compound present at t = 0 min) ([4]; 5 min): 49.3% | Compound Remaining (% of compound present at t = 0 min) ([4]; 15 min): 14.1% | Compound Remaining (% of compound present at t = 0 min) ([4]; 30 min): 2.43% | Compound Remaining (% of compound present at t = 0 min) ([4]; 45 min): 0.845% | half-life at 5 μM ([4]; human): 5.62 min | Compound Remaining (% of compound present at t = 0 min) ([5]; 0 min): 100% | Compound Remaining (% of compound present at t = 0 min) ([5]; 5 min): 87.6% | Compound Remaining (% of compound present at t = 0 min) ([5]; 15 min): 82.7% | Compound Remaining (% of compound present at t = 0 min) ([5]; 30 min): 57.1% | Compound Remaining (% of compound present at t = 0 min) ([5]; 45 min): 47.4% | half-life at 5 μM ([5]; human): 0.69 h
